pIC50: −log10 of the molar value.

For this assay, the target named is T1, recombinant autotaxin (Homo sapiens, UniProt Q13822).
T1 construct: made in house; host or cells: Hi5 insect cells (baculovirus)
Kind of assay: Autotaxin test (enzyme test), Amplex Red fluorescence with LPC substrate. The assay is classed as biochemical. To be noted: autotaxin inhibition (enzyme test); for remaining activity at 10 µM: 10 μM compound, read-out: % Control at 10 μM. The gist of the method: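 Purified recombinant autotaxin (baculovirus Hi5-expressed) pre-incubated with compound 30 min at 22° C, then LPC (final 75 μM) added and reacted 90 min at 37° C in Tris pH 8 buffer with CaCl2. Choline released was coupled via alkaline phosphatase, choline oxidase and peroxidase to Amplex Red; resorufin fluorescence read in kinetic mode (ex 485/em 612 nm).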

One may read the pIC50 as −log10 of the IC50, conventionally taken in molar units. In the case of `CC(C)(C)[C@H](O)C(=O)N1CCN2C(=O)c3cc(-c4ccc(Cl)cc4F)ccc3NC(=O)C2C1` (stereo partly drawn) [Compound A60, 7-(4-Chloro-2-fluorophenyl)-2-((S)-2-hydroxy-3,3-dimethylbutyryl)-1,3,4,11a-tetrahydro-2H,10H-2,4a,10-triazadibenzo[a,d]cycloheptene-5,11-dione], the remaining activity at 10 µM is -27% and the pIC50 is 6.00 to 7.00.

For the molecule `CC(C)(C)[C@H](N)C(=O)N1CCN2C(=O)c3cc(-c4ccc(Cl)cc4F)ccc3NC(=O)C2C1` (stereo partly drawn) [Compound A61, 2-((S)-2-Amino-3,3-dimethylbutyryl)-7-(4-chloro-2-fluorophenyl)-1,3,4,11a-tetrahydro-2H,10H-2,4a,10-triazadibenzo[a,d]cycloheptene-5,11-dione], the remaining activity at 10 µM was -11% and the negative-log IC50 (pIC50) is less than 6.00.

Consider `CC(C)[C@H](N)C(=O)N1CCN2C(=O)c3cc(-c4ccc(Cl)cc4F)ccc3NC(=O)[C@@H]2C1` [Compound A62, (S)-2-((S)-2-Amino-3-methylbutyryl)-7-(4-chloro-2-fluorophenyl)-1,3,4,11a-tetrahydro-2H,10H-2,4a,10-triazadibenzo[a,d]cycloheptene-5,11-dione], for which the remaining activity at 10 µM is 27% and the pIC50 is less than 6.00.

`CC(C)[C@H](N)C(=O)N1CCN2C(=O)c3cc(-c4ccc(Cl)cc4F)ccc3NC(=O)[C@H]2C1` [Compound A63, (R)-2-((S)-2-Amino-3-methylbutyryl)-7-(4-chloro-2-fluorophenyl)-1,3,4,11a-tetrahydro-2H,10H-2,4a,10-triazadibenzo[a,d]cycloheptene-5,11-dione]: the remaining activity at 10 µM worked out at 67% and the pIC50 is less than 6.00.

Regarding `CC(C)(C)[C@H](O)C(=O)N1CCN2C(=O)c3cc(-c4ccc(Cl)cc4F)ccc3NC(=O)[C@@H]2C1` [Compound A64, (S)-7-(4-Chloro-2-fluorophenyl)-2-((S)-2-hydroxy-3,3-dimethylbutyryl)-1,3,4,11a-tetrahydro-2H,10H-2,4a,10-triazadibenzo[a,d]cycloheptene-5,11-dione], the remaining activity at 10 µM is 31% and the pIC50 is less than 6.00.

On to `CC(C)(C)[C@H](N)C(=O)N1CCN2C(=O)c3cc(-c4ccc(Cl)cc4F)ccc3NC(=O)[C@H]2C1` [Compound A65, (R)-2-((S)-2-Amino-3,3-dimethylbutyryl)-7-(4-chloro-2-fluorophenyl)-1,3,4,11a-tetrahydro-2H,10H-2,4a,10-triazadibenzo[a,d]cycloheptene-5,11-dione], for which the remaining activity at 10 µM turned out to be 48.5% and the negative logarithm of the IC50 (pIC50) is less than 6.00.

In the case of `CC(C)(C)[C@H](N)C(=O)N1CCN2C(=O)c3cc(-c4ccc(Cl)cc4F)ccc3NC(=O)[C@@H]2C1` [Compound A66, (S)-2-((S)-2-Amino-3,3-dimethylbutyryl)-7-(4-chloro-2-fluorophenyl)-1,3,4,11a-tetrahydro-2H,10H-2,4a,10-triazadibenzo[a,d]cycloheptene-5,11-dione], the remaining activity at 10 µM worked out at 9.5% and the pIC50 was 6.00 to 7.00.

Take `Cn1cncc1C(=O)N1CCN2C(=O)c3cc(-c4ccc(Cl)cc4F)ccc3NC(=O)C2C1` (stereo not drawn) [Compound A67, 7-(4-Chloro-2-fluorophenyl)-2-(3-methyl-3H-imidazole-4-carbonyl)-1,3,4,11a-tetrahydro-2H,10H-2,4a,10-triazadibenzo[a,d]cycloheptene-5,11-dione]: the remaining activity at 10 µM came to 19% and the pIC50 is less than 6.00.

In the case of `CC1(C)SCN[C@@H]1C(=O)N1CCN2C(=O)c3cc(-c4ccc(Cl)cc4F)ccc3NC(=O)C2C1` (stereo partly drawn) [Compound A68, 7-(4-Chloro-2-fluorophenyl)-2-((R)-5,5-dimethyl-thiazolidine-4-carbonyl)-1,3,4,11a-tetrahydro-2H,10H-2,4a,10-triazadibenzo[a,d]cycloheptene-5,11-dione], the remaining activity at 10 µM was -18% and the pIC50 was 6.00 to 7.00.

Values taken from patent US20120115852A1, “HETEROCYCLIC COMPOUNDS AS AUTOTAXIN INHIBITORS” (Merck Patent Gesellschaft Mit Beschrankter Haftung, priority 2009, published 2012).
